Legend:
foxtail, green = assay: Test E preemergence; assay type: in vivo, Setaria viridis; conditions: 21 days, scale 0 to 100
From the text: (§1) Seeds of plant species selected from bermudagrass (Cynodon dactylon), Surinam grass (Brachiaria decumbens), crabgrass, large (large crabgrass, Digitaria sanguinalis), crabgrass, naked (naked crabgrass, Digitaria nuda), foxtail, green (green foxtail, Setaria viridis), johnsongrass (Sorghum halepense), kochia (Kochia scoparia), morningglory (pitted morningglory, Ipomoea lacunosa), nutsedge, purple (purple nutsedge, Cyperus rotundus), ragweed (common ragweed, Ambrosia elation), mustard, black (black mustard, Brassica nigra), guineagrass (Panicum maximum), dallisgrass (Paspalum dilatatum), barnyardgrass (Echinochloa crus-galli), sandbur (southern sandbur, Cenchrus echinatus), sowthistle (common sowthistle, Sonchus oleraceous), ryegrass, Italian (Italian ryegrass, Lolium multiflorum), signalgrass (broadleaf signalgrass, Brachiaria platyphylla), dayflower, VA (Virginia (VA) dayflower, Commelina virginica), bluegrass (annual bluegrass, Poa annua), quackgrass (Elytrigia repens), mallow (common mallow, Malva sylvestris), buckwheat, wild (wild buckwheat, Polygonum convolvulus), leafy spurge (Euphorbia esula), common chickweed (Stellaria media), wild poinsettia (Euphorbia heterophylla), pigweed, palmer (palmer pigweed, Amaranthus palmeri), and pigweed (redroot pigweed, Amaranthus retroflexus) were planted into a blend of loam soil and sand and treated preemergence with test chemicals formulated in a non-phytotoxic solvent mixture which included a surfactant.
(§2) Treated plants and controls were maintained in a greenhouse for 21 days, after which time all species were compared to controls and visually evaluated. Plant response ratings, summarized in Table E, are based on a scale of 0 to 100 where 0 is no effect and 100 is complete control. A dash (-) response means no test result.

nutsedge, purple = assay: Test E preemergence; assay type: in vivo, Cyperus rotundus; conditions: 21 days, scale 0 to 100
From the text: as §1, §2

sandbur = assay: Test E preemergence; assay type: in vivo, Cenchrus echinatus; conditions: 21 days, scale 0 to 100
From the text: as §1, §2

wild poinsettia = assay: Test E preemergence; assay type: in vivo, Euphorbia heterophylla; conditions: 21 days, scale 0 to 100
From the text: as §1, §2

sedge, umbrella = assay: Test C flooded paddy test; assay type: in vivo, Cyperus difformis; conditions: Flood
Procedure, shortened: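 Greenhouse pots flooded to 3 cm above soil at time of treatment received compound via the water, which stayed at that level.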

sowthistle = assay: Test E preemergence; assay type: in vivo, Sonchus oleraceous; conditions: 21 days, scale 0 to 100
From the text: as §1, §2

[1] = 31 g ai/ha, scale 0 to 100 (0 no effect, 100 complete control)
[2] = 62 g ai/ha, scale 0 to 100 (0 no effect, 100 complete control)
[3] = 125 g ai/ha, scale 0 to 100 (0 no effect, 100 complete control)

Compound	Plant response rating, Foxtail, Green (foxtail, green; 16 g ai/ha)	Plant response rating, Foxtail, Green (foxtail, green; 31 g ai/ha)	Plant response rating, Foxtail, Green (foxtail, green; 62 g ai/ha)	Plant response rating, Nutsedge, Purple (nutsedge, purple; 16 g ai/ha)	Plant response rating, Nutsedge, Purple (nutsedge, purple; 31 g ai/ha)	Plant response rating, Nutsedge, Purple (nutsedge, purple; 62 g ai/ha)	Plant response rating, Sandbur (sandbur; 16 g ai/ha)	Plant response rating, Sandbur (sandbur; 31 g ai/ha)	Plant response rating, Sandbur (sandbur; 62 g ai/ha)	Plant response rating, Wild Poinsettia (wild poinsettia; 16 g ai/ha)	Plant response rating, Wild Poinsettia (wild poinsettia; 31 g ai/ha)	Plant response rating, Wild Poinsettia (wild poinsettia; 62 g ai/ha)	Plant response rating, Sedge, Umbrella (sedge, umbrella; [1])	Plant response rating, Sedge, Umbrella (sedge, umbrella; [2])	Plant response rating, Sedge, Umbrella (sedge, umbrella; 250 g ai/ha, scale 0 to 100)	Plant response rating, Sedge, Umbrella (sedge, umbrella; [3])	other results
CCc1cc(C(=O)NC(C)C)nn1Cc1ccnc(C(F)(F)F)c1 [Compound 103]	100	100	100	15	75	90	40	70	100	80	95	100	–	–	–	–	Plant response rating, Foxtail, Green (foxtail, green; 125 g ai/ha): 100; Plant response rating, Foxtail, Green (foxtail, green; 250 g ai/ha): 100; Plant response rating, Nutsedge, Purple (nutsedge, purple; 125 g ai/ha): 98; Plant response rating, Nutsedge, Purple (nutsedge, purple; 250 g ai/ha): 100; Plant response rating, Sandbur (sandbur; 125 g ai/ha): 100; Plant response rating, Sandbur (sandbur; 250 g ai/ha): 100; Plant response rating, Wild Poinsettia (wild poinsettia; 125 g ai/ha): 100; Plant response rating, Wild Poinsettia (wild poinsettia; 250 g ai/ha): 100
CCCNC(=O)c1cc(CCCl)n(Cc2ccnc(C(F)(F)F)c2)n1 [Compound 145]	–	–	–	–	–	–	–	–	–	–	–	–	100	100	100	–	Plant response rating, Sedge, Umbrella (sedge, umbrella; 125 g ai/ha, scale 0 to 100): 100
CCOc1cc(C(=O)NC2CC2)nn1Cc1ccnc(C(F)(F)F)c1 [Compound 189]	100	100	100	50	50	85	0	20	90	65	95	100	–	–	–	–	Plant response rating, Foxtail, Green (foxtail, green; 4 g ai/ha): 0; Plant response rating, Foxtail, Green (foxtail, green; 8 g ai/ha): 20; Plant response rating, Nutsedge, Purple (nutsedge, purple; 4 g ai/ha): 0; Plant response rating, Nutsedge, Purple (nutsedge, purple; 8 g ai/ha): 10; Plant response rating, Sandbur (sandbur; 4 g ai/ha): 0; Plant response rating, Sandbur (sandbur; 8 g ai/ha): 0; Plant response rating, Sowthistle (sowthistle; 4 g ai/ha): 98; Plant response rating, Sowthistle (sowthistle; 8 g ai/ha): 98; Plant response rating, Sowthistle (sowthistle; 16 g ai/ha): 100; Plant response rating, Sowthistle (sowthistle; 31 g ai/ha): 100; Plant response rating, Sowthistle (sowthistle; 62 g ai/ha): 100; Plant response rating, Wild Poinsettia (wild poinsettia; 4 g ai/ha): 10; Plant response rating, Wild Poinsettia (wild poinsettia; 8 g ai/ha): 25
CCONC(=O)c1cc(OCC)n(Cc2ccnc(C(F)(F)F)c2)n1 [Compound 195]	–	–	–	–	–	–	–	–	–	–	–	–	0	75	85	80	–
CCc1cc(C(=O)NC2CC2)nn1Cc1ccnc(OCC(F)(F)F)c1 [Compound 200]	–	–	–	–	–	–	–	–	–	–	–	–	50	80	100	100	–
CCc1cc(C(=O)NC2CC2)nn1Cc1cc(C(F)(F)C(F)(F)F)nn1C [Compound 226]	–	–	–	–	–	–	–	–	–	–	–	–	20	25	–	85	–

— patent US20150105252A1, “SUBSTITUTED PYRAZOLES AS HERBICIDES” (E I DU PONT DE NEMOURS AND COMPANY, priority 2013, published 2015)
